As a reminder, the IC50 is the point on the concentration scale where inhibition reaches its midpoint.

The assay deals with TBK1 (Homo sapiens (Human), UniProt Q9UHD2). Kind of assay: TBK1 low ATP kinase assay (in vitro assay 1). It counts as biochemical. The conditions noted are these: in vitro assay 1, read-out: TBK1 low ATP kinase assay IC50.
Sequence of TBK1 (Q9UHD2 whole entry): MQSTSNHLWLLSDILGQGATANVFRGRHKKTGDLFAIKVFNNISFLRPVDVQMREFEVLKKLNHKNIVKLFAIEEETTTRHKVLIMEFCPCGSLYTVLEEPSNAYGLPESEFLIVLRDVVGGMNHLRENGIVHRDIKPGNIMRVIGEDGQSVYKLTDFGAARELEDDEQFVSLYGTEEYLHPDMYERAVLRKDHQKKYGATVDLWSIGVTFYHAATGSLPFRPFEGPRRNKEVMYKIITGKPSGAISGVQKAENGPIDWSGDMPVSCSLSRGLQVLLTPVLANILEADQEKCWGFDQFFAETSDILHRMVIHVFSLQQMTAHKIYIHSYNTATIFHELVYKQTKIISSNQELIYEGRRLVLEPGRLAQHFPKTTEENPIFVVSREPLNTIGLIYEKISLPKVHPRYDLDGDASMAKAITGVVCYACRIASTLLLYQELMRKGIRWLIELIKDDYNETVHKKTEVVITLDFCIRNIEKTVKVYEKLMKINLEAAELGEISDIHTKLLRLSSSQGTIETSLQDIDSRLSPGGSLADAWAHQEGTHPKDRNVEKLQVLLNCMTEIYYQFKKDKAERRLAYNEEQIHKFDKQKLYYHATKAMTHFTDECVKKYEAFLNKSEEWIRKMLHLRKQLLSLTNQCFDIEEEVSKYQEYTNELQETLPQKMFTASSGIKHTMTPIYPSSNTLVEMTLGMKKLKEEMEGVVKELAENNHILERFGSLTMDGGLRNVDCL
For `Clc1ccccc1N1CCN(Cc2ccnc(Nc3nc4ccc(-c5nc(C6CC6)no5)cc4[nH]3)c2)CC1` [Example 17.07, N-(4-{[4-(2-chlorophenyl)piperazin-1-yl]methyl}pyridin-2-yl)-6-(3-cyclopropyl-1,2,4-oxadiazol-5-yl)-1H-benzimidazol-2-amine], the IC50 was 102 nM.
To `COc1c(NC2CCC2)ncnc1-c1ccc2nc(Nc3cc(C(C)N4CCN(C(=O)OC(C)(C)C)CC4)ccn3)[nH]c2c1` (single isomer, unassigned) [Example 114.01, tert-butyl 4-{(1R or 1S)-1-[2-({6-[6-(cyclobutylamino)-5-methoxypyrimidin-4-yl]-1H-benzimidazol-2-yl}amino)pyridin-4-yl]ethyl}piperazine-1-carboxylate] belongs 61 nM; to `O=C(C1CC1)N1CCN(Cc2ccnc(Nc3nc4ccc(-c5cnn(CC6CCC6)c5)cc4[nH]3)c2)CC1` [Example 59.02.02, (4-{[2-({6-[1-(cyclobutylmethyl)-1H-pyrazol-4-yl]-1H-benzimidazol-2-yl}amino)pyridin-4-yl]methyl}piperazin-1-yl)(cyclopropyl)methanone], 6.71 nM; to `Cc1ncnc(-c2ccc3nc(Nc4cc(CN5CCN(C(=O)C6CC6)CC5)ccn4)[nH]c3c2)c1C` [Example 32.01, cyclopropyl{4-[(2-{[6-(5,6-dimethylpyrimidin-4-yl)-1H-benzimidazol-2-yl]amino}pyridin-4-yl)methyl]piperazin-1-yl}methanone], 951 nM.
Consider `COc1cnc(OCC2CC2)nc1-c1ccc2nc(Nc3cc(CN4CCN(C(=O)CC(F)(F)F)CC4)ccn3)[nH]c2c1` [Example 64.01.03, 1-(4-{[2-({6-[2-(cyclopropylmethoxy)-5-methoxypyrimidin-4-yl]-1H-benzimidazol-2-yl}amino)pyridin-4-yl]methyl}piperazin-1-yl)-3,3,3-trifluoropropan-1-one], for which the concentration for half-maximal inhibition (IC50) stood at 47 nM.
Take `CC(c1ccnc(Nc2nc3ccc(-c4cc(N5CCC5)ncn4)cc3[nH]2)c1)N1CCN(C(=O)OC(C)(C)C)CC1` (single isomer, unassigned) [Example 115.01, tert-butyl 4-{(1R or 1S)-1-[2-({6-[6-(azetidin-1-yl)pyrimidin-4-yl]-1H-benzimidazol-2-yl}amino)pyridin-4-yl]ethyl}piperazine-1-carboxylate]: the IC50 was determined as 1.4 nM.
With `CC(O)c1cc(-c2ccc3nc(Nc4cc(CN5CCN(C(=O)OC(C)(C)C)CC5)ccn4)[nH]c3c2)ncn1` (racemic) [Example 97.01, (rac)-tert-butyl 4-({2-[(6-{6-[1-hydroxyethyl]pyrimidin-4-yl}-1H-benzimidazol-2-yl)amino]pyridin-4-yl}methyl)piperazine-1-carboxylate], the half-inhibitory concentration (IC50) came to 21 nM.
On to `COc1nccc(-c2ccc3nc(Nc4cc(CN5CCN(C(=O)C6CC6)CC5)ccn4)[nH]c3c2)n1` [Example 25.01.05, cyclopropyl{4-[(2-{[6-(2-methoxypyrimidin-4-yl)-1H-benzimidazol-2-yl]amino}pyridin-4-yl)methyl]piperazin-1-yl}methanone], for which the concentration for half-maximal inhibition (IC50) was 64.5 nM.
Consider `O=C(C1CC1)N1CCN(Cc2ccnc(Nc3nc4ccc(-c5ncnc(NC6CCC6)c5F)cc4[nH]3)c2)CC1` [Example 194.03, (4-{[2-({6-[6-(cyclobutylamino)-5-fluoropyrimidin-4-yl]-1H-benzimidazol-2-yl}amino)pyridin-4-yl]methyl}piperazin-1-yl)(cyclopropyl)methanone], for which the IC50 turned out to be 49.4 nM.
On to `COc1cc(-c2ccc3nc(Nc4cc(CN5CCN(C(=O)C6CCC6)CC5)ccn4)[nH]c3c2)ccn1` [Example 02.04, cyclobutyl{4-[(2-{[6-(2-methoxypyridin-4-yl)-1H-benzimidazol-2-yl]amino}pyridin-4-yl)methyl]piperazin-1-yl}methanone], for which the 50% inhibitory concentration (IC50) came out at 43.4 nM.
Turning to `CN(c1cc(-c2ccc3nc(Nc4cc(CN5CCN(C(=O)CC(F)(F)F)CC5)ccn4)[nH]c3c2)ncn1)C1CC1` [Example 157.02, 1-[4-({2-[(6-{6-[cyclopropyl(methyl)amino]pyrimidin-4-yl}-1H-benzimidazol-2-yl)amino]pyridin-4-yl}methyl)piperazin-1-yl]-3,3,3-trifluoropropan-1-one], the IC50 turned out to be 8.9 nM.
As to `Cc1nccc(-c2ccc3nc(Nc4cc(CN5CCN(C(=O)CC(F)(F)F)CC5)ccn4)[nH]c3c2)n1` [Example 24.01.01, 3,3,3-trifluoro-1-{4-[(2-{[6-(2-methylpyrimidin-4-yl)-1H-benzimidazol-2-yl]amino}pyridin-4-yl)methyl]piperazin-1-yl}propan-1-one], the IC50 came to 35.4 nM.
Take `CC(c1ccnc(Nc2nc3ccc(-c4cnn(CC5CCC5)c4)c(Cl)c3[nH]2)c1)N1CCN(C(=O)OC(C)(C)C)CC1` (single isomer, unassigned) [Example 75.01, tert-butyl 4-{(1R or 1S)-1-[2-({7-chloro-6-[1-(cyclobutylmethyl)-1H-pyrazol-4-yl]-1H-benzimidazol-2-yl}amino)pyridin-4-yl]ethyl}piperazine-1-carboxylate]: the half-maximal inhibitory concentration (IC50) was found to be 20 nM.
As for `CCOc1ncnc(-c2ccc3nc(Nc4cc(CN5CCN(C(=O)C6(C(F)(F)F)CC6)CC5)ccn4)[nH]c3c2)c1OC` [Example 167.04], the IC50 is 23.7 nM.
On to `CC(c1ccnc(Nc2nc3ccc(-c4cc(C(F)(F)F)ncn4)cc3[nH]2)c1)N1CCN(C(=O)C2CC2)CC1` (racemic) [Example 29.01.02, (rac)-cyclopropyl(4-{1-[2-({6-[6-(trifluoromethyl)pyrimidin-4-yl]-1H-benzimidazol-2-yl}amino)pyridin-4-yl]ethyl}piperazin-1-yl)methanone], for which the IC50 was 3.47 nM.
Regarding `CC(c1ccnc(Nc2nc3ccc(-c4cnn(CC5CC5(F)F)c4)c(Cl)c3[nH]2)c1)N1CCN(C(=O)C2CC2)CC1` (single isomer, unassigned) [Example 70.02, {4-[(1R or 1S)-1-(2-{[7-chloro-6-(1-{[(1RS)-2,2-difluorocyclopropyl]methyl}-1H-pyrazol-4-yl)-1H-benzimidazol-2-yl]amino}pyridin-4-yl)ethyl]piperazin-1-yl}(cyclopropyl)methanone], the 50% inhibitory concentration (IC50) was 0.73 nM.
Consider `Cc1cc(-c2ccc3nc(Nc4cc(CN5CCN(C(=O)OC(C)(C)C)CC5)ccn4)[nH]c3c2)cc(C#N)n1` [Example 136.01, tert-butyl 4-[(2-{[6-(2-cyano-6-methylpyridin-4-yl)-1H-benzimidazol-2-yl]amino}pyridin-4-yl)methyl]piperazine-1-carboxylate], for which the IC50 worked out at 53 nM.
In the case of `COc1c(-c2ccc3nc(Nc4cc(C(C)N5CCN(C(=O)C6CC6)CC5)ccn4)[nH]c3c2)ncnc1N(C)C` (single isomer, unassigned) [Example 107.02.02, cyclopropyl(4-{(1R or 1S)-1-[2-({6-[6-(dimethylamino)-5-methoxypyrimidin-4-yl]-1H-benzimidazol-2-yl}amino)pyridin-4-yl]ethyl}piperazin-1-yl)methanone], the IC50 worked out at 5.9 nM.
Consider `COc1cc(-c2ccc3nc(Nc4cc(CN5CCN(C(=O)CC(F)(F)F)CC5)ccn4)[nH]c3c2)c(F)cn1` [Example 03.02, 3,3,3-trifluoro-1-{4-[(2-{[6-(5-fluoro-2-methoxypyridin-4-yl)-1H-benzimidazol-2-yl]amino}pyridin-4-yl)methyl]piperazin-1-yl}propan-1-one], for which the half-maximal inhibitory concentration (IC50) was 232 nM.
The same measure for `C=CCC(=O)N1CCN(Cc2ccnc(Nc3nc4ccc(-c5nc(C6CC6)no5)cc4[nH]3)c2)CC1` [Example 17.04, 1-{4-[(2-{[6-(3-cyclopropyl-1,2,4-oxadiazol-5-yl)-1H-benzimidazol-2-yl]amino}pyridin-4-yl)methyl]piperazin-1-yl}but-3-en-1-one]: 102 nM; for `O=C(CC(F)(F)F)N1CCN(Cc2ccnc(Nc3nc4ccc(-c5ccn[nH]5)cc4[nH]3)c2)CC1` [Example 124.02, 3,3,3-trifluoro-1-{4-[(2-{[6-(1H-pyrazol-5-yl)-1H-benzimidazol-2-yl]amino}pyridin-4-yl)methyl]piperazin-1-yl}propan-1-one]: 100 nM; for `CN(C)c1ccnc(-c2ccc3nc(Nc4cc(CN5CCN(C(=O)CC(F)(F)F)CC5)ccn4)[nH]c3c2)n1` [Example 181.02, 1-(4-{[2-({6-[4-(dimethylamino)pyrimidin-2-yl]-1H-benzimidazol-2-yl}amino)pyridin-4-yl]methyl}piperazin-1-yl)-3,3,3-trifluoropropan-1-one]: 152 nM.
Take `COc1cncnc1-c1ccc2nc(Nc3cc(C(C)N4CCN(C(=O)CC5CC5)CC4)ccn3)[nH]c2c1` (single isomer, unassigned) [Example 35.03.02.B, 2-cyclopropyl-1-{4-[(1S or 1R)-1-(2-{[6-(5-methoxypyrimidin-4-yl)-1H-benzimidazol-2-yl]amino}pyridin-4-yl)ethyl]piperazin-1-yl}ethanone]: the IC50 was 32.8 nM.
Take `CC(c1ccnc(Nc2nc3ccc(-c4ccnn4C(C)C)cc3[nH]2)c1)N1CCN(C(=O)CC(F)(F)F)CC1` (single isomer, unassigned) [Example 72.02, 3,3,3-trifluoro-1-(4-{(1R or 1S)-1-[2-({6-[1-(propan-2-yl)-1H-pyrazol-5-yl]-1H-benzimidazol-2-yl}amino)pyridin-4-yl]ethyl}piperazin-1-yl)propan-1-one]: the 50% inhibitory concentration (IC50) was 250 nM.
With `COc1cncnc1-c1ccc2nc(Nc3cc(CN4CCN(S(=O)(=O)C5CCOCC5)CC4)ccn3)[nH]c2c1` [Example 35.01.14, 6-(5-methoxypyrimidin-4-yl)-N-(4-{[4-(tetrahydro-2H-pyran-4-ylsulfonyl)piperazin-1-yl]methyl}pyridin-2-yl)-1H-benzimidazol-2-amine], the half-maximal inhibitory concentration (IC50) was determined as 22.8 nM.
Turning to `Cc1c(-c2ccc3nc(Nc4cc(CN5CCN(C(=O)C6CC6)CC5)ccn4)[nH]c3c2)ccnc1OC(C)C` [Example 11.01, cyclopropyl(4-{[2-({6-[3-methyl-2-(propan-2-yloxy)pyridin-4-yl]-1H-benzimidazol-2-yl}amino)pyridin-4-yl]methyl}piperazin-1-yl)methanone], the 50% inhibitory concentration (IC50) came to 3610 nM.
